Measurements from US20100159030A1, “METHODS FOR DETECTING AND MODULATING THE SENSITIVITY OF TUMOR CELLS TO ANTI-MITOTIC AGENTS AND FOR MODULATING TURMORGENICITY” (NewSouth Innovations Pty Limited, priority 2007, published 2010).

What was measured:
H460 cells [1] = assay: Cell cycle analysis by flow cytometry (propidium iodide); format: cell-based, Human; settings: 24 h
Method: The distribution of DNA content in βII or βIVb tubulin siRNA-transfected H460 cells was determined by flow cytometry. After 72 h transfection, transfected cells were exposed to vincristine at 5 nM or 40 nM concentrations for 24 h. On the day of analysis, both adherent and floating cells were harvested, washed with PBS and then stained with a solution containing 0.4% Triton® X-100 (Sigma), 50 μg/ml propidium iodide (Sigma), and 2 μg/ml DNase-free RNase (Roche, Indianapolis, Ind.) in the dark for 15 min at 37′C. DNA content was measured by a FACSCalibur flow cytometer (Becton Dickinson, San Diego, Calif.). The flow rate was <200 nuclei per second and 10,000 cells from each sample were analysed. Measurements were performed under the same instrumental settings. The CellQuest® program was used to quantitate the distribution of cells in each cell cycle phase: sub-G1 (apoptotic cells), G1, S and G2/M.
To determine whether βIII-tubulin silencing affects the cell cycle profiles, cell cycle analysis using flow cytometry was performed. Cell cycle analysis was determined by transfecting H460 cells with siRNA for 72 h and harvesting (adherent and suspension) cells 24 h after drug treatment. DNA content was stained for 15 min at 37° C. with a solution containing 0.4% Triton® X-100 (Sigma-Aldrich), 50 μg/ml propidium iodide (Sigma-Aldrich), and 2 μg/ml DNAse-free RNAse (Roche, Indianapolis, Ind.). The cells were then analyzed for cell cycle perturbation using a FACSCalibur (Becton-Dickinson, Franklin Lakes, N.J.). The CellQuest® program was used to quantitate the distribution of cells in each cell cycle phase: sub-G1(apoptotic cells), G1, S and G2/M.

H460 cells [2] = assay: Apoptosis induction, Annexin V-FITC flow cytometry; format: cell-based, Human; settings: 48 h
Method: Annexin V-FITC staining followed by flow cytometry analysis was performed to address whether the increase in the sub-G1 population following exposure to tubulin-binding agents in the βIII-tubulin siRNA treated cells was related to an increase in apoptosis induction. Apoptosis induction was determined by transfecting H460 cells with siRNA for 72 h and harvesting (adherent and suspension) cells 48 h after drug treatment, as previously described in Pasquier et al., Mol Cancer Ther 2004; 3:1301-10. Briefly, 1×10^5 cells were incubated with Annexin V-FITC and propidium iodide for 15 min in the dark (Becton-Dickinson), immediately followed by flow cytometry using a FACSCalibur (Becton-Dickinson). Cytogram analysis was performed using CellQuest® software.

In the case of CC(=O)O[C@H]1C(=O)[C@@]2(C)[C@H]([C@H](OC(=O)c3ccccc3)[C@]3(O)C[C@H](OC(=O)[C@H](O)[C@@H](NC(=O)c4ccccc4)c4ccccc4)C(C)=C1C3(C)C)[C@]1(OC(C)=O)CO[C@@H]1C[C@@H]2O [Paclitaxel, paclitaxel], the cell cycle profile (H460 cells [1]; control siRNA cells, 40 nM) is reported as “marked G2/M block”, the cell cycle profile (H460 cells [1]; βIII-tubulin siRNA cells vs control siRNA, 5 nM) is reported as “higher sub-G1 (apoptotic cells) content” and the cell cycle profile (H460 cells [1]; βIII-tubulin siRNA cells, 40 nM) is reported as “marked increase in the sub-G1 population”. For the same compound, the “concentration from which apoptosis is induced” value (H460 cells [2]; control siRNA treated cells) was at least 5 nM, the “concentration from which apoptosis is induced” value (H460 cells [2]; βIII-tubulin siRNA treated cells) was at least 1 nM and the “percentage of apoptotic cells” value (H460 cells [2]; βIII-tubulin siRNA vs control siRNA cells, paclitaxel 1, 2, 5 nM, cisplatin 0.4 or 1 μM) was “significantly higher”.
